Test results published in patent US20100216779A1 (GLAXOSMITHKLINE LLC, priority 2007, published 2010).

Tests used:
[1] = target: T1, human IGF-1R (NIH-3T3 cells over expressing human IGF-1R) (Homo sapiens, UniProt P08069); assay: IGF-1R cellular autophosphorylation (DELFIA); assay type: cell-based; conditions: IGF-1 stimulated
T1 construct: expressed in transfected cells; host or cells: NIH-3T3 (mouse fibroblasts)
Experimental: D. IGF-1R and IR Cellular Autophosphorylation (DELFIA)
NIH-3T3 cells over expressing human IGF-1R or IR were plated in 96-well plates (10,000 cells/well) in culture media containing 10% fetal bovine serum and incubated at 37° C. in a 5% CO2 incubator. Twenty four hours post-plating, cells were treated with different concentrations of test compounds ranging from 30 uM to 1.5 nM. Two hours after compound addition, cells were stimulated with either human IGF-1 (30 ng/mL) or insulin (3 ug/mL) for 15 minutes. Cell lysates are analyzed for phosphorylated receptors using dissociation enhanced lanthanide fluor-immuno assay (DELFIA) with anti-IGF-1R (MAB391, R&D Systems, Minneapolis, Minn.) or anti-IR[…](sc-711, Santa Cruz Biotechnology, Santa Cruz, Calif.) capture antibody and europium-labeled anti-pTyr antibody (Eu-N1 PT66, Perkin Elmer, Waltham, Mass.) for detection. The fluorescence signal for cells treated with compounds was expressed as percent relative to 100% stimulation (IGF-1 or insulin stimulated signal). […]

COLO205 (colon) = assay: Inhibition of cell proliferation, CellTiter-Glo, COLO205; assay type: cell-based; conditions: Homo sapiens, COLO 205, 72 h
Experimental: C. Inhibition of Cell Proliferation
Cell proliferation was measured by either CellTiter-Glo (measures cellular ATP level as a surrogate for total cell number) or by InCell analyzer (counts number of nuclei as a measure of cell number). For CellTiter-Glo assay, exponentially growing cell lines of different tumor origins, cultured in appropriate media containing 10% fetal bovine serum at 37° C. in a 5% CO2 incubator, were plated at low density (less than 2000 cells/well) in 96-well plates. […] Several wells were left untreated as a control. Seventy two hours post-treatment, cell numbers were determined using 50-100 ul per well of CellTiter-Glo (Promega #G7573). Plates were incubated at 37° C. for 30 minutes and the chemiluminescent signal was read on the Victor V or Envison 2100 reader. […]

T1 sequence (P08069 31-1367): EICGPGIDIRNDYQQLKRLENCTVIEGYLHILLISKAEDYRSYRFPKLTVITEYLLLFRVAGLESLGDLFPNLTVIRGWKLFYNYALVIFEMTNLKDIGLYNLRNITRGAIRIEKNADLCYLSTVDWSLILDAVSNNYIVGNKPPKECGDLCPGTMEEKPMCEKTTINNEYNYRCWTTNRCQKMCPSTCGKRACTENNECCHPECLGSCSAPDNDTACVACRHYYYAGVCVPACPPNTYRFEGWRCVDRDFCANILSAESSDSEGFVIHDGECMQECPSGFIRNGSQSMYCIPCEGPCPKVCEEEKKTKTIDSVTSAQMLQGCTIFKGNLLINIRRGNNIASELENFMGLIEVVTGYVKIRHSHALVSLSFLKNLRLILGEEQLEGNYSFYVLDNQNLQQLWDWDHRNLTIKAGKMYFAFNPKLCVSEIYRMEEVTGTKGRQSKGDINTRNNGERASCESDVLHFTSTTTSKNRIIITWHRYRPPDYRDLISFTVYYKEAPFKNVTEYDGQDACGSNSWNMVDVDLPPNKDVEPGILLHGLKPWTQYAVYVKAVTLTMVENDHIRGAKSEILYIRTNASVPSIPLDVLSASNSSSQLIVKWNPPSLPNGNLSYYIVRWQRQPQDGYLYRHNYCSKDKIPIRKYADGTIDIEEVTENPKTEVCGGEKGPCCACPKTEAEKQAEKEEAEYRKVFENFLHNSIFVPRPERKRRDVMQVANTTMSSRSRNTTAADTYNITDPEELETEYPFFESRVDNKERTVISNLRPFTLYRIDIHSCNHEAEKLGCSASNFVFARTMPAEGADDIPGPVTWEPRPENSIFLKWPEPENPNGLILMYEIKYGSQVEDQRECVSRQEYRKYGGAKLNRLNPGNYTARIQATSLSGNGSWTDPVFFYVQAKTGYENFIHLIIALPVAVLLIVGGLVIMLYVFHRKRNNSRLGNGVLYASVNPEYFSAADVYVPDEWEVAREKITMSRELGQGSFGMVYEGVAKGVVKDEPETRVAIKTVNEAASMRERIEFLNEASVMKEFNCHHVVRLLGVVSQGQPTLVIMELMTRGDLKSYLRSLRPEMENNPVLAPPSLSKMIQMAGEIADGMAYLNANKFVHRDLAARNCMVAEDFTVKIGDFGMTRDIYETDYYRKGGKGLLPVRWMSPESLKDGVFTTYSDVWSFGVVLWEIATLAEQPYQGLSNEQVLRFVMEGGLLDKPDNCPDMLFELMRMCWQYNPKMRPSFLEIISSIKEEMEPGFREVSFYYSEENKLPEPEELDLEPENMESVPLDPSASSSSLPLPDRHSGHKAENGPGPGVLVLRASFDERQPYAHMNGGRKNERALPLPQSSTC

Row | SMILES | IC50 [1] | IC50 (COLO205 (colon))
1 | COc1cc(N2CCN(C(C)C)CC2)ccc1Nc1nccc(-c2c(-c3cccc(C(=O)Nc4c(F)cccc4F)c3)nc3ccccn23)n1 [Example 175, N-(2,6-difluorophenyl)-3-[3-(2-{[4-[4-(1-methylethyl)-1-piperazinyl]-2-(methyloxy)phenyl]amino}-4-pyrimidinyl)imidazo[1,2-a]pyridin-2-yl]benzamide] | < 100 nM | 250 to 1000 nM
2 | COc1cc(N2CCC(N3CCOCC3)CC2)ccc1Nc1nccc(-c2c(-c3cccc(C(=O)Nc4c(F)cccc4F)c3)nc3ccccn23)n1 [Example 38, N-(2,6-difluorophenyl)-3-{3-[2-({2-(methyloxy)-4-[4-(4-morpholinyl)-1-piperidinyl]phenyl}amino)-4-pyrimidinyl]imidazo[1,2-a]pyridin-2-yl}benzamide] | < 100 nM | 250 to 1000 nM
3 | COc1cc(N2CCOCC2)ccc1Nc1nccc(-c2c(-c3cccc(C(=O)Nc4c(F)cccc4F)c3)nc3ccccn23)n1 [Example 71, N-(2,6-difluorophenyl)-3-[3-(2-{[2-(methyloxy)-4-(4-morpholinyl)phenyl]amino}-4-pyrimidinyl)imidazo[1,2-a]pyridin-2-yl]benzamide] | < 100 nM | 250 to 1000 nM
4 | COc1cc(CCN2CCCCC2)c(F)cc1Nc1nccc(-c2c(-c3cccc(C(=O)Nc4c(F)cc(F)cc4F)c3)nc3ccccn23)n1 [Example 129, 3-{3-[2-({5-fluoro-2-(methyloxy)-4-[2-(1-piperidinyl)ethyl]phenyl}amino)-4-pyrimidinyl]imidazo[1,2-a]pyridin-2-yl}-N-(2,4,6-trifluorophenyl)benzamide] | 100 to 500 nM | 250 to 1000 nM
5 | COc1cc(N2CCC(N(C)C)CC2)ccc1Nc1nccc(-c2c(-c3cccc(C(=O)Nc4c(F)cccc4F)c3)nc3ccccn23)n1 [Example 74, N-(2,6-difluorophenyl)-3-[3-(2-{[4-[4-(dimethylamino)-1-piperidinyl]-2-(methyloxy)phenyl]amino}-4-pyrimidinyl)imidazo[1,2-a]pyridin-2-yl]benzamide] | < 100 nM | < 250 nM
6 | COc1cc(CCN2CCCCC2)c(F)cc1Nc1nccc(-c2c(-c3cccc(C(=O)Nc4c(F)cccc4F)c3)nc3ccccn23)n1 [Example 128, N-(2,6-difluorophenyl)-3-{3-[2-({5-fluoro-2-(methyloxy)-4-[2-(1-piperidinyl)ethyl]phenyl}-amino)-4-pyrimidinyl]imidazo[1,2-a]pyridin-2-yl}benzamide] | 100 to 500 nM | 250 to 1000 nM
7 | COc1ccc(-c2nc3ccccn3c2-c2ccnc(Nc3cccc(CN4CCN(C)CC4)c3C)n2)cc1C(=O)Nc1c(F)cccc1F [Example 25, N-(2,6-difluorophenyl)-5-{3-[2-({2-methyl-3-[(4-methyl-1-piperazinyl)methyl]phenyl}amino)-4-pyrimidinyl}imidazo[1,2-a]pyridin-2-yl]-2-(methyloxy)benzamide] | 100 to 500 nM | 250 to 1000 nM
8 | COc1cc(N2CCC(N3CCCC(F)(F)C3)CC2)ccc1Nc1nccc(-c2c(-c3cccc(C(=O)Nc4c(F)cccc4F)c3)nc3ccccn23)n1 [Example 75, 3-[3-(2-{[4-(3,3-difluoro-1,4′-bipiperidin-1′-yl)-2-(methyloxy)phenyl]amino]-4-pyrimidinyl)imidazo[1,2-a]pyridin-2-yl]-N-(2,6-difluorophenyl)benzamide] | < 100 nM | 250 to 1000 nM
9 | COc1cc(N2CCC(OC)CC2)ccc1Nc1nccc(-c2c(-c3cccc(C(=O)Nc4c(F)cccc4F)c3)nc3ccccn23)n1 [Example 125, N-(2,6-difluorophenyl)-3-{3-[2-({2-(methyloxy)-4-[4-(methyloxy)-1-piperidinyl]phenyl}-amino)-4-pyrimidinyl}imidazo[1,2-a]pyridin-2-yl]benzamide] | < 100 nM | 250 to 1000 nM
10 | COc1cc(CCN2CCN(C)CC2)ccc1Nc1nccc(-c2c(-c3cccc(C(=O)Nc4c(F)cccc4F)c3)nc3ccccn23)n1 [Example 132, N-(2,6-difluorophenyl)-3-{3-[2-({2-(methyloxy)-4-[2-(4-methyl-1-piperazinyl)ethyl]phenyl}amino)-4-pyrimidinyl]imidazo[1,2-a]pyridin-2-yl}benzamide] | < 100 nM | 250 to 1000 nM
11 | COc1cc(CCN2CCOCC2)c(F)cc1Nc1nccc(-c2c(-c3ccc(OC)c(C(=O)Nc4c(F)cccc4F)c3)nc3ccccn23)n1 [Example 130, N-(2,6-difluorophenyl)-5-{3-[2-({5-fluoro-2-(methyloxy)-4-[2-(4-morpholinyl)ethyl]phenyl}-amino)-4-pyrimidinyl]imidazo[1,2-a]pyridin-2-yl}-2-(methyloxy)benzamide] | 100 to 500 nM | 250 to 1000 nM
12 | COc1ccn2c(-c3ccnc(Nc4cccc(OCCN(C)C)c4)n3)c(-c3ccc(OC)c(C(=O)Nc4c(F)cccc4F)c3)nc2c1 [Example 3, N-(2,6-difluorophenyl)-5-[3-{2-[(3-{[2-(dimethylamino)ethyl]oxy}phenyl)amino]-4-pyrimidinyl}-7-(methyloxy)imidazo[1,2-a]pyridin-2-yl]-2-(methyloxy)benzamide] | 100 to 500 nM | 250 to 1000 nM
13 | Cc1c(CN2CCN(C)CC2)cccc1Nc1nccc(-c2c(-c3cccc(C(=O)Nc4c(F)cccc4F)c3)nc3ccccn23)n1 [Example 24] | < 100 nM | 250 to 1000 nM
14 | COc1cc(N2CCC(N3CC[C@H](F)C3)CC2)ccc1Nc1nccc(-c2c(-c3cccc(C(=O)Nc4c(F)cccc4F)c3)nc3ccccn23)n1 [Example 77, N-(2,6-difluorophenyl)-3-[3-(2-{[4-{4-[(3S)-3-fluoro-1-pyrrolidinyl]-1-piperidinyl}-2-(methyloxy)phenyl]amino}-4-pyrimidinyl)imidazo[1,2-a]pyridin-2-yl]benzamide] | < 100 nM | 250 to 1000 nM
15 | COc1ccc(N2CCC(N3CCCCC3)CC2)cc1Nc1nccc(-c2c(-c3ccc(OC)c(C(=O)Nc4c(F)cccc4F)c3)nc3ccccn23)n1 [Example 31, 5-[3-(2-{[5-(1,4′-bipiperidin-1-yl)-2-(methyloxy)phenyl]amino}-4-pyrimidinyl)imidazo[1,2-a]pyridin-2-yl]-N-(2,6-difluorophenyl)-2-(methyloxy)benzamide] | < 100 nM | 250 to 1000 nM
16 | COc1cc(N2CCC(N3CCN(S(C)(=O)=O)CC3)CC2)ccc1Nc1nccc(-c2c(-c3ccc(OC)c(C(=O)Nc4c(F)cccc4F)c3)nc3ccccn23)n1 [Example 69] |  | 250 to 1000 nM
17 | CN(C)CCOc1cccc(Nc2nccc(-c3c(-c4cccc(C(=O)Nc5cc(C(F)(F)F)ccc5F)c4)nc4ccccn34)n2)c1 [Example 10, 3-(3-{2-[(3-{[2-(dimethylamino)ethyl]oxy}phenyl)amino]-4-pyrimidinyl}imidazo[1,2-a]pyridin-2-yl)-N-[2-fluoro-5-(trifluoromethyl)phenyl]benzamide] | 100 to 500 nM | 
18 | COc1ccc(N2CCC(N3CCCCC3)CC2)cc1Nc1nccc(-c2c(-c3cccc(C(=O)Nc4c(F)cccc4F)c3)nc3ccccn23)n1 [Example 30, 3-[3-(2-{[5-(1,4′-bipiperidin-1′-yl)-2-(methyloxy)phenyl]amino}-4-pyrimidinyl)imidazo[1,2-a]pyridin-2-yl]-N-(2,6-difluorophenyl)benzamide] | 100 to 500 nM | 250 to 1000 nM
19 | COc1cc(-c2nnc(CN3CCCC3)o2)ccc1Nc1nccc(-c2c(-c3cccc(C(=O)Nc4c(F)cccc4F)c3)nc3ccccn23)n1 [Example 29, N-(2,6-difluorophenyl)-3-{3-[2-({2-(methyloxy)-4-[5-(1-pyrrolidinylmethyl)-1,3,4-oxadiazol-2-yl]phenyl}amino)-4-pyrimidinyl]imidazo[1,2-a]pyridin-2-yl}benzamide] | 100 to 500 nM | 
20 | CN(C)CCOc1cccc(Nc2nccc(-c3c(-c4cccc(C(=O)Nc5ccc(F)cc5F)c4)nc4ccccn34)n2)c1 [Example 13] | < 100 nM | 
21 | CN(C)CCOc1cccc(Nc2nccc(-c3c(-c4cccc(C(=O)Nc5cc(Cl)ccc5F)c4)nc4ccccn34)n2)c1 [Example 9, N-(5-chloro-2-fluorophenyl)-3-(3-{2-[(3-{[2-(dimethylamino)ethyl]oxy}phenyl)amino]-4-pyrimidinyl}imidazo[1,2-a]pyridin-2-yl)benzamide] | 100 to 500 nM | 
22 | Cc1ccn2c(-c3ccnc(Nc4cccc(OCCN(C)C)c4)n3)c(-c3cccc(C(=O)Nc4c(F)cccc4F)c3)nc2c1 [Example 14, N-(2,6-difluorophenyl)-3-(3-{2-[(3-{[2-(dimethylamino)ethyl]oxy}phenyl)amino]-4-pyrimidinyl}-7-methylimidazo[1,2-a]pyridin-2-yl)benzamide] | > 500 nM | 
23 | COc1cc(-c2nnc(CN3CCCC3)o2)ccc1Nc1nccc(-c2c(-c3ccc(OC)c(C(=O)Nc4c(F)cccc4F)c3)nc3ccccn23)n1 [Example 28, N-(2,6-difluorophenyl)-2-(methyloxy)-5-{3-[2-({2-(methyloxy)-4-[5-(1-pyrrolidinylmethyl)-1,3,4-oxadiazol-2-yl]phenyl]amino)-4-pyrimidinyl}imidazo[1,2-a]pyridin-2-yl}benzamide] | 100 to 500 nM | 
